Data on 11 molecules can be found in ChEMBL document CHEMBL1134637, “Fluorescent tricyclic analogues of acyclovir and ganciclovir. A structure-antiviral activity study” (2001).

≈ marks a conversion by molar mass, not a printed value.

Common to all, as to type: functional
Test [1] relates to Human alphaherpesvirus 1. The test can be described thus: Minimal inhibitory concentration to reduce virus-induced cytopathicity against F strain of human Herpes Simplex Virus-1 (HSV-1). In general terms: Protection from cytopathic effect is a common read-out in antiviral testing.
The test system of test [2] is Human alphaherpesvirus 1. The test can be described thus: Minimal inhibitory concentration to reduce virus-induced cytopathicity against TK-/TK+ HSV-1 of VMW 837.
A short description of test [3]: Minimal cytotoxic concentration (MCC) to cause a microscopically detectable change in normal cell morphology.
Another test has as its system Vaccinia virus. The test can be described thus: Minimal inhibitory concentration to reduce virus-induced cytopathicity against VV. The settings on record: Orthopoxvirus vaccinia.
The subject of test [4] is Human alphaherpesvirus 1. Kind of test: Minimal inhibitory concentration to reduce virus-induced cytopathicity against KOS strain of human Herpes Simplex Virus -1.
In test [5] the test system is Human alphaherpesvirus 2. Kind of test: Minimal inhibitory concentration to reduce virus-induced cytopathicity against Lyons strain of human Herpes Simplex Virus-2.
Test [6] relates to Human alphaherpesvirus 1. The test can be described thus: Minimal inhibitory concentration to reduce virus-induced cytopathicity against Thymidine kinase deficient(TK-) HSV-1 of Acyclovir.
Test [7] relates to Human alphaherpesvirus 2. Kind of test: Minimal inhibitory concentration to reduce virus-induced cytopathicity against G strain of human Herpes Simplex Virus-2.
In test [8] the test system is Human alphaherpesvirus 2. Kind of test: Minimal inhibitory concentration to reduce virus-induced cytopathicity against 196 strain of human Herpes Simplex Virus-2.
For test [9], the system named is Human alphaherpesvirus 1. The test can be described thus: Minimal inhibitory concentration to reduce virus-induced cytopathicity against McIntyre strain of human Herpes Simplex Virus-1.
Test [10] relates to Vesicular stomatitis virus. Kind of test: Minimal inhibitory concentration to reduce virus-induced cytopathicity against VSV.
Where [11] appears, read: Human alphaherpesvirus 1, read-out: MIC.
Where [12] appears, read: Human alphaherpesvirus 2, read-out: MIC.

Turning to `COc1ccc(-c2cn3c(O)c4ncn(COC(CO)CO)c4nc3n2)cc1`, the MIC in the test with Human alphaherpesvirus 1 [1] (setting [11]) was 0.005 µg/mL (≈ 0.013 µM); against Human alphaherpesvirus 1 [2], 0.04 µg/mL (≈ 0.104 µM); against Vaccinia virus it was greater than 80 µg/mL; against Human alphaherpesvirus 1 [4] it was 0.005 µg/mL (≈ 0.013 µM); against Human alphaherpesvirus 2 [5], 0.02 µg/mL (≈ 0.0519 µM); with Human alphaherpesvirus 1 [6], greater than 16 µg/mL. Moreover, the MIC is 0.03 µg/mL (≈ 0.0778 µM) in the test with Human alphaherpesvirus 2 [7] (setting [12]), 0.08 µg/mL (≈ 0.208 µM) against Human alphaherpesvirus 2 [8], 0.005 µg/mL (≈ 0.013 µM) against Human alphaherpesvirus 1 [9] and greater than 80 µg/mL in test [10]. Further, the MCC in [3] is greater than 80 µg/mL.
On to `COc1ccc(OC)c(-c2cn3c(O)c4ncn(COCCO)c4nc3n2)c1`, for which the MIC with Human alphaherpesvirus 1 [1] (setting [11]) was 16 µg/mL (≈ 41.5 µM); against Human alphaherpesvirus 1 [2] it was greater than 16 µg/mL; against Vaccinia virus it was greater than 16 µg/mL; in the test on Human alphaherpesvirus 1 [4] it was 9.6 µg/mL (≈ 24.9 µM); in the test with Human alphaherpesvirus 2 [5], greater than 16 µg/mL; in the test with Human alphaherpesvirus 1 [6], greater than 16 µg/mL. For the same molecule, the MIC in the test with Human alphaherpesvirus 2 [7] (setting [12]) was 9.6 µg/mL (≈ 24.9 µM); against Human alphaherpesvirus 2 [8] it was greater than 16 µg/mL; with Human alphaherpesvirus 1 [9], 16 µg/mL (≈ 41.5 µM); in [10] it was greater than 16 µg/mL. This molecule came in with an MCC in test [3] of 80 µg/mL.
For the molecule `Cc1nc2nc3c(ncn3COCCO)c(O)n2c1C(c1ccccc1)(c1ccccc1)c1ccccc1`, the MIC in the test on Human alphaherpesvirus 1 [1] (setting [11]), in the test on Human alphaherpesvirus 1 [2], with Vaccinia virus, with Human alphaherpesvirus 1 [4], against Human alphaherpesvirus 2 [5] and against Human alphaherpesvirus 1 [6] was greater than 16 µg/mL in each case. Besides, the MIC (with Human alphaherpesvirus 2 [7] (setting [12]); against Human alphaherpesvirus 2 [8]; with Human alphaherpesvirus 1 [9]; in [10]) was greater than 16 µg/mL throughout. Moreover, the MCC in test [3] was 80 µg/mL.
Consider `OCC(CO)OCn1cnc2c(O)n3ccnc3nc21`, for which the MIC in the test with Human alphaherpesvirus 1 [1] (setting [11]) worked out at 0.7 µg/mL (≈ 2.51 µM); with Vaccinia virus, 400 µg/mL (≈ 1430 µM); against Human alphaherpesvirus 1 [4], 0.7 µg/mL (≈ 2.51 µM); with Human alphaherpesvirus 2 [5] it was 0.7 µg/mL (≈ 2.51 µM); against Human alphaherpesvirus 1 [6], 400 µg/mL (≈ 1430 µM); in the test on Human alphaherpesvirus 2 [7] (setting [12]), 2 µg/mL (≈ 7.16 µM). The figures for the MIC in the test on Human alphaherpesvirus 2 [8] and with Human alphaherpesvirus 1 [9] were 2 µg/mL (≈ 7.16 µM) and 0.7 µg/mL (≈ 2.51 µM), respectively. For the same molecule, in test [3], the MCC came to 400 µg/mL.
In the case of `OCCOCn1cnc2c(O)n3ccnc3nc21`, the MIC is 4 pug ml-1 against Human alphaherpesvirus 1 [1]; 400 µg/mL (≈ 1600 µM) against Vaccinia virus; 20 µg/mL (≈ 80.2 µM) against Human alphaherpesvirus 1 [4]; 10 µg/mL (≈ 40.1 µM) in the test with Human alphaherpesvirus 2 [5]; 400 µg/mL (≈ 1600 µM) against Human alphaherpesvirus 1 [6]; 20 µg/mL (≈ 80.2 µM) in the test on Human alphaherpesvirus 2 [7] (setting [12]). The results for the MIC in the test on Human alphaherpesvirus 2 [8] and against Human alphaherpesvirus 1 [9] were 70 µg/mL (≈ 281 µM) and 20 µg/mL (≈ 80.2 µM), respectively. In test [3], this molecule returned an MCC of 400 µg/mL.
Turning to `OCCOCn1cnc2c(O)n3c(-c4ccc(C(c5ccccc5)c5ccccc5)cc4)c(-c4ccccc4)nc3nc21`, the MIC with Human alphaherpesvirus 1 [1] (setting [11]), with Human alphaherpesvirus 1 [2], against Vaccinia virus, in the test with Human alphaherpesvirus 1 [4], with Human alphaherpesvirus 2 [5] and with Human alphaherpesvirus 1 [6] was greater than 16 µg/mL throughout. Further, the MIC (in the test on Human alphaherpesvirus 2 [7] (setting [12]); in the test on Human alphaherpesvirus 2 [8]; against Human alphaherpesvirus 1 [9]; in test [10]) was greater than 16 µg/mL in each case. Also, in test [3], the MCC was found to be 80 µg/mL.
Turning to `OCCOCn1cnc2c(O)n3c(C(c4ccccc4)(c4ccccc4)c4ccccc4)cnc3nc21`, the MIC in the test with Human alphaherpesvirus 1 [1] (setting [11]), against Human alphaherpesvirus 1 [2], against Vaccinia virus, in the test on Human alphaherpesvirus 1 [4], against Human alphaherpesvirus 2 [5] and against Human alphaherpesvirus 1 [6] was greater than 16 µg/mL in each case. The MIC (in the test with Human alphaherpesvirus 2 [7] (setting [12]); with Human alphaherpesvirus 2 [8]; with Human alphaherpesvirus 1 [9]; in test [10]) was greater than 16 µg/mL each time. This molecule also registered an MCC in test [3] of 80 µg/mL.
On to `COc1ccc(-c2nc3nc4c(ncn4COCCO)c(O)n3c2-c2ccc(C(c3ccccc3)c3ccccc3)cc2)cc1`, for which the MIC with Human alphaherpesvirus 1 [1] (setting [11]), in the test with Human alphaherpesvirus 1 [2], in the test on Vaccinia virus, in the test on Human alphaherpesvirus 1 [4], with Human alphaherpesvirus 2 [5] and against Human alphaherpesvirus 1 [6] was greater than 16 µg/mL throughout. The MIC was greater than 16 pug ml-1 against Human alphaherpesvirus 2 [7], greater than 16 µg/mL in the test on Human alphaherpesvirus 2 [8], greater than 16 µg/mL with Human alphaherpesvirus 1 [9] and greater than 16 µg/mL in test [10]. In addition, the MCC in [3] stood at 80 µg/mL.
With `CC(=O)OCCOCn1cnc2c(O)n3cc(-c4ccc5ccccc5c4)nc3nc21`, the MIC with Human alphaherpesvirus 1 [1] (setting [11]), with Human alphaherpesvirus 1 [2], in the test with Vaccinia virus, against Human alphaherpesvirus 1 [4], in the test with Human alphaherpesvirus 2 [5] and against Human alphaherpesvirus 1 [6] was greater than 16 µg/mL throughout. Further, the MIC (in the test on Human alphaherpesvirus 2 [7] (setting [12]); against Human alphaherpesvirus 2 [8]; against Human alphaherpesvirus 1 [9]; in test [10]) was greater than 16 µg/mL in each case. In addition, the MCC in [3] was greater than 80 µg/mL.
For `CCc1cn2c(O)c3ncn(COCCO)c3nc2n1`, the MIC with Human alphaherpesvirus 1 [1] (setting [11]) stood at 9.6 µg/mL (≈ 34.6 µM); against Human alphaherpesvirus 1 [2], 48 µg/mL (≈ 173 µM); in the test on Vaccinia virus, 240 µg/mL (≈ 866 µM); against Human alphaherpesvirus 1 [4] it was 1.92 µg/mL (≈ 6.92 µM); against Human alphaherpesvirus 2 [5], 9.6 µg/mL (≈ 34.6 µM); in the test with Human alphaherpesvirus 1 [6], 240 µg/mL (≈ 866 µM). The MIC was 9.6 µg/mL (≈ 34.6 µM) in the test on Human alphaherpesvirus 2 [7] (setting [12]), 9.6 µg/mL (≈ 34.6 µM) against Human alphaherpesvirus 2 [8], 9.6 µg/mL (≈ 34.6 µM) against Human alphaherpesvirus 1 [9] and greater than 400 µg/mL in test [10]. In addition, in test [3], the MCC is greater than 400 µg/mL.
As for `OCC(CO)OCn1cnc2c(O)n3cc(-c4ccccc4)nc3nc21`, the MIC in the test with Human alphaherpesvirus 1 [1] (setting [11]) is 0.005 µg/mL (≈ 0.0141 µM); with Human alphaherpesvirus 1 [2], 0.5 µg/mL (≈ 1.41 µM); with Vaccinia virus, greater than 90 µg/mL; with Human alphaherpesvirus 1 [4], 0.02 µg/mL (≈ 0.0563 µM); in the test with Human alphaherpesvirus 2 [5], 0.005 µg/mL (≈ 0.0141 µM); in the test on Human alphaherpesvirus 2 [7] (setting [12]) it was 0.3 µg/mL (≈ 0.844 µM). The values for the MIC (in the test with Human alphaherpesvirus 2 [8]; against Human alphaherpesvirus 1 [9]; in test [10]) were 0.02 µg/mL (≈ 0.0563 µM), 0.005 µg/mL (≈ 0.0141 µM) and greater than 175 µg/mL, respectively. The molecule further displayed an MCC in test [3] greater than 175 µg/mL.
